How the values were obtained:
[1] = target: all screened targets except SERT and α2C-adrenoreceptors; assay: Radioligand binding counter-screen (NIMH PDSP), remaining targets; details: non-opioid targets
KOR = KOR (Homo sapiens, UniProt P41145)
DOR = DOR (Homo sapiens, UniProt P41143); assay: cell-based
mMOR = mMOR (Mus musculus, UniProt P42866); assay: biochemical
mKOR = mKOR (Mus musculus, UniProt P33534); assay: biochemical
[2] = transduction coefficient log(T/KA)

KOR, sequence (P41145 whole entry): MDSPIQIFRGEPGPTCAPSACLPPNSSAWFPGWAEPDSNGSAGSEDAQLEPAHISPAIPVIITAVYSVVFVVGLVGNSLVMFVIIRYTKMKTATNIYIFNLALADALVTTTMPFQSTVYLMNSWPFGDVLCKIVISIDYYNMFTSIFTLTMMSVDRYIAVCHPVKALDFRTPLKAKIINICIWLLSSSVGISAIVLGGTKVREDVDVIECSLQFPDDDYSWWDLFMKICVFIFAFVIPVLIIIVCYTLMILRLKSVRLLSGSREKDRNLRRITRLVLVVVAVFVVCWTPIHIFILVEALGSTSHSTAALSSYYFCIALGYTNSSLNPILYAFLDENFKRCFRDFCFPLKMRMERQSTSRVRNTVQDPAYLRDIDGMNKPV
DOR, sequence (P41143 whole entry): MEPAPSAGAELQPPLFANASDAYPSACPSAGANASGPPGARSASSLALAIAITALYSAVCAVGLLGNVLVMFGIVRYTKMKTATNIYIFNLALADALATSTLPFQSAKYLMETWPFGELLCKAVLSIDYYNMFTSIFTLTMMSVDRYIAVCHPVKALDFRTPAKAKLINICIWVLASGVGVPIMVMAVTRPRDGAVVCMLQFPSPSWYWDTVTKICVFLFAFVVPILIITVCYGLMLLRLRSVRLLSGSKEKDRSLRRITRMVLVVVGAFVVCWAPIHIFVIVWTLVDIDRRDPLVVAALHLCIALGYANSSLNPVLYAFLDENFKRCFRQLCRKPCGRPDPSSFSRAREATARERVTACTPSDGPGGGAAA
mMOR, sequence (P42866 whole entry): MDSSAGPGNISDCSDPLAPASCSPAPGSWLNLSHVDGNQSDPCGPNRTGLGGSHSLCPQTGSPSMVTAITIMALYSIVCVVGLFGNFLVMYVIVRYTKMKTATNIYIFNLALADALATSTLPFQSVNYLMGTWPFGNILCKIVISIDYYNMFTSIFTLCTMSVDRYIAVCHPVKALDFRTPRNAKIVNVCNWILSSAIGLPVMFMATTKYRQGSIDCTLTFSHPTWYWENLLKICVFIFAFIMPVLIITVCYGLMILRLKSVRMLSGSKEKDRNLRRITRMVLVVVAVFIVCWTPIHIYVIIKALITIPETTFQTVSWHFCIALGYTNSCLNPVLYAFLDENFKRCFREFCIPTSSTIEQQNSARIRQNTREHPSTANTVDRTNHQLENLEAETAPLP
mKOR, sequence (P33534 whole entry): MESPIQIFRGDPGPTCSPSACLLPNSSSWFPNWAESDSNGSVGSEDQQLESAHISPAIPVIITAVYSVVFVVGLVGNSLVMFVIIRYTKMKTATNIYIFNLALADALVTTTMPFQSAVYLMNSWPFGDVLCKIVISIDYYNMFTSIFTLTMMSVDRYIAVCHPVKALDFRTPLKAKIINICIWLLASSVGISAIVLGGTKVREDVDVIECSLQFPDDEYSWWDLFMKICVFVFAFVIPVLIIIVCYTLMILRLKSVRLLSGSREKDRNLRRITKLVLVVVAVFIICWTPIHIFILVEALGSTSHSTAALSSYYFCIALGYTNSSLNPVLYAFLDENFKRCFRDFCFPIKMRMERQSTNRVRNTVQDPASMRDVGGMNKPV

NCc1cccc(C(=O)N[C@@H]2CCC3C4Cc5ccc(O)c6c5[C@@]3(CCN4CC3CC3)C2O6)c1 (stereo partly drawn) [MP1207, 3-(Aminomethyl)-N-((7R,12bS)−3-(cyclopropylmethyl)−9-hydroxy-2,3,4,4a,5,6,7,7a-octahydro-1H-4,12-methanobenzofuro[3,2-e]isoquinolin-7-yl)benzamide]
Ki [1]: > 10000 nM | ΔΔlog RA (cAMP-Tango) hKOR (KOR): 0.903±0.026 | Bias factor (cAMP-Tango) hKOR (KOR; >1 G protein bias, <1 arrestin bias, vs U50,488h): 8 | Log RA cAMP hKOR (KOR; [2]): 9.902±0.004 | LogRA Tango hKOR (KOR; [2]): 7.97±0.024 | ΔlogRA Tango hKOR (KOR; vs U50,488h): -0.176±0.025 | ΔlogRA cAMP hKOR (KOR; vs U50,488h): 0.73±0.006 | EC50 (DOR; EC50 arrestin recruitment hDOR, Tango): 64.1 nM | Emax (DOR; HTLA, read-out: Emax% arrestin recruitment hDOR): 34 ± 3.7% | Ki (mMOR): 0.23 ± 0.02 nM | Ki (mKOR): 0.39 ± 0.05 nM

Source: paper PMC7909954 (eLife, 2021)
